Synergy with fluconazole data for one compound are collected here from paper PMC12505902, “Inhibitors of trehalose-6-phosphate synthase activity in fungal pathogens compromise thermal tolerance pathways” (mBio, 2025).

This assay deals with C. neoformans H99. Nature of the assay: Epsilometer test (E-test) with fluconazole strips. In kind it is cell-based. As to conditions: YPD plates with 4456dh, fluconazole E-test strip, 37°C, 72 h, dose-dependent. The procedure: Inhibitors of Tps1 may work synergistically with known antifungal drugs. In C. glabrata, the trehalose biosynthesis mutant, tps2Δ, is more susceptible to fluconazole at 37°C ([40]). Therefore, we hypothesized that there might be synergy between 4456dh and fluconazole.
169 different concentrations (0.5mM, 1mM, and 5mM) and one was used as untreated control.
170 tps1/ tps1 deletion mutant was used as a negative control for filamentation in these assays. 10 µl
171 of cell suspension was directly used for imaging the filamentation status of the cells using the
172 Zeiss Axio Scope microscope attached to the Axiocam at 40X magnification. The images were
173 processed using Fiji (8) for the final presentation.
174 Epsilometer Test (E-test)
175 C. neoformans wild type (H99) was incubated in a shaking culture of YPD medium for 18 h at
176 30 °C. The culture was diluted to an OD600 0.6, diluted 10-fold in PBS, and 100 µL was spread
177 onto 60 X 15 mm YPD agar plates prepared with different concentrations of 4456dh. After the […]
190 (Zeiss). The size of the capsule of > 100 cells per 4456dh treatment was quantified using Image […]
247 was measured using a colorimetric glucose assay after treatment of cultures with trehalase. […]
249 Supplemental Figure 11. Quantification of capsule formation in C. neoformans treated with
250 4456dh. Images taken were analyzed with ImageJ. […]
251 were analyzed. […]

As to `Cn1cc(-c2csc(NC(=O)Cc3ccccn3)n2)cn1` [Compound 4456dh], the synergy with fluconazole entry is on record as “detected synergy”.
